Results taken from publication PMC3916150 (Journal of medicinal chemistry, 2013).
Where two headings read alike, the source gives them in different places.

Tests used:
human RARα = molecular target: T1, human RARα (Homo sapiens, UniProt P10276); experiment: RAR/RARE-luciferase reporter assay in HCT-116 cells; settings: RARE-luciferase, versus all-trans retinoic acid
T1 sequence (P10276 1-462): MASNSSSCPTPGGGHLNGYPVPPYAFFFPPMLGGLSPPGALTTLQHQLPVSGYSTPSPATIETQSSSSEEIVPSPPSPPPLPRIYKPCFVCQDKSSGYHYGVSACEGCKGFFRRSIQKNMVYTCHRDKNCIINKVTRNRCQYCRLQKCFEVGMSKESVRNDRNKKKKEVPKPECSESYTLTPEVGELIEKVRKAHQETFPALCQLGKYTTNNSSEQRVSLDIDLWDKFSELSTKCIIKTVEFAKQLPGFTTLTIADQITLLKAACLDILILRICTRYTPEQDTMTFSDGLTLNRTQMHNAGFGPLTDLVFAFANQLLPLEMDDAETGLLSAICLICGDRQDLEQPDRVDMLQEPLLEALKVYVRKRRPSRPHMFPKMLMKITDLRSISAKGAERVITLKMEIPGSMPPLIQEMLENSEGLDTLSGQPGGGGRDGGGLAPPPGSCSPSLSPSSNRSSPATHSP

human RXR = molecular target: T2, human RXR (Homo sapiens, UniProt P19793); experiment: RXR mammalian two-hybrid; settings: for RXR-mediated transcriptional activity: data in Figures 4 and 5 (M2H and RXRE assays); for RXR binding and homodimerization (luciferase output) compared to compound 1: 24 h
T2 sequence (P19793 1-462) 1: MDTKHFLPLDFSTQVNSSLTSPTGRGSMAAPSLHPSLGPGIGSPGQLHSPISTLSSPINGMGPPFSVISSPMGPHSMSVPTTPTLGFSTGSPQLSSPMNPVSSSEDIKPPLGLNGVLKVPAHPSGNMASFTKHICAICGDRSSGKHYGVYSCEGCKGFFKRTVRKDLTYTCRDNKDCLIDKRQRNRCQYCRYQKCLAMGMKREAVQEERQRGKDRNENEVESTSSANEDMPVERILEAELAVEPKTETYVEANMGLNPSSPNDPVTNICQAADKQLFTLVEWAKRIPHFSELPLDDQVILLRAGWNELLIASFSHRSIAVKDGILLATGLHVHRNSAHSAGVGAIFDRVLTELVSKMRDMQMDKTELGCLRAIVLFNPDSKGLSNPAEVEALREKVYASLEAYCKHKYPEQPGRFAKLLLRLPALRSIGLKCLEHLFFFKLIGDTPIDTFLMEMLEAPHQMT
T2 sequence (P19793 1-462) 2: T2 sequence (P19793 1-462) 1

VDR-RXR = settings: for inhibition of VDR activity compared with compound 1: both assays (10^-6 M and 10^-7 M), ER6 VDRE
[1] = system: HuT-78 (human T-cell lymphoma) cells; experiment: Caspase-Glo 3/7 apoptosis assay in CTCL cells; type: cell-based; settings: 100 nM
human RXRα = molecular target: T3, human RXRα (Homo sapiens, UniProt P19793); experiment: RXRE-luciferase reporter transcription assay in HCT-116 cells; type: cell-based; settings: 25 nM and 100 nM (both assays), HCT-116, Figure 5A and B
T3 sequence (P19793 1-462): T2 sequence (P19793 1-462) 1

[2] = 1,000 nM analog + 1 nM 1,25D, Fig. 7B
[3] = 100 nM analog + 1 nM 1,25D, Fig. 7E
[4] = 1,000 nM analog + 1 nM 1,25D, Fig. 7F
[5] = 100 nM analog + 1 nM 1,25D, Fig. 7A
[6] = 100 nM analog + 1 nM 1,25D, Fig. 7C

| Molecule | RAR agonist activity compared to bexarotene (human RARα) | RXR-mediated transcriptional activity (human RXR) | ER6 VDRE-mediated activity versus 1,25D alone (VDR-RXR; [2]) | apoptosis compared to ethanol vehicle control ([1]; 24 hours) | CYP24 natural promoter 1,25D-VDR transactivation versus 1,25D alone (VDR-RXR; [3]) | apoptosis compared to ethanol vehicle control ([1]; 48 hours) | inhibition of VDR activity compared with compound 1 (VDR-RXR) | RXR binding and homodimerization (luciferase output) compared to compound 1 (human RXR; 25 nM, HCT-116, Figure 4A) | CYP24 natural promoter 1,25D-VDR transactivation versus 1,25D alone (VDR-RXR; [4]) | RXR binding and homodimerization (luciferase output) compared to compound 1 (human RXR; 100 nM, HCT-116, Figure 4B) | ER6 VDRE-mediated activity versus 1,25D alone (VDR-RXR; [5]) | DR3 VDRE-mediated activity versus 1,25D alone (VDR-RXR; 1,000 nM analog + 1 nM 1,25D, Fig. 7D) | DR3 VDRE-mediated activity versus 1,25D alone (VDR-RXR; [6]) | RXRE-mediated transcriptional activity compared to compound 1 (human RXRα) |
| --- | --- | --- | --- | --- | --- | --- | --- | --- | --- | --- | --- | --- | --- | --- |
| Cc1cc2c(cc1-c1cc(/C=C/C(=O)O)ccc1C(F)(F)F)C(C)(C)CCC2(C)C [Compound 16, (E)-3-(4-(trifluoromethyl)-3-(1,2,3,4-tetrahydro-1,1,4,4,6-pentamethylnaphthalen-7-yl)phenyl)acrylic acid] | slightly lower RAR-directed activity | consistently lower RXR-mediated transcriptional activity | significantly lower | greater than the ethanol vehicle control |  |  |  |  |  |  |  |  |  |  |
| C=C(c1ccc(C(=O)O)c(F)c1)c1cc2c(cc1C)C(C)(C)C=CC2(C)C [Compound 19, 2-Fluoro-4-(1-(1,4-dihydro-1,1,4,4,6-pentamethylnaphthalen-7-yl)vinyl)benzoic acid] | greater RAR agonist activity | consistently lower RXR-mediated transcriptional activity | significantly lower | greater than the ethanol vehicle control | significant inhibiton | greater than the ethanol vehicle control |  |  |  |  |  |  |  |  |
| Methyl 2-(1-(1,2,3,4-tetrahydro-1,1,4,4,6-pentamethylnaphthalen-7-yl)vinyl)pyridine-5-carboxylate [Compound 13] | greater RAR agonist activity |  | significantly lower | greater than the ethanol vehicle control |  | greater than the ethanol vehicle control | inhibited VDR activity less |  |  |  |  |  |  |  |
| Cc1cc2c(cc1-c1cc(/C=C/C(=O)O)ccc1O)C(C)(C)C=CC2(C)C [Compound 18, (2E)-3-(3-(1,4-dihydro-1,1,4,4,6-pentamethylnaphthalen-7-yl)-4-hydroxyphenyl)acrylic acid] | approximately equal to bexarotene | consistently more active | significantly lower | greater than the ethanol vehicle control | significant inhibiton | greater than the ethanol vehicle control |  | approaching statistical significance | significant inhibiton |  |  |  |  |  |
| Cc1ccc(/C=C/C(=O)O)cc1-c1cc2c(cc1C)C(C)(C)CCC2(C)C [Compound 15, (E)-3-(3-(1,2,3,4-tetrahydro-1,1,4,4,6-pentamethylnaphthalen-7-yl)-4-methylphenyl)acrylic acid] | greater RAR agonist activity | consistently more active | significantly lower |  |  |  |  | greater activity than compound 1 |  | high activity compared with compound 1 | significantly lower | significantly higher |  |  |
| Cc1ccc(/C=C/C(=O)O)cc1-c1cc2c(cc1C)C(C)(C)C=CC2(C)C [Compound 17, (2E)-3-(3-(1,4-dihydro-1,1,4,4,6-pentamethylnaphthalen-7-yl)-4-methylphenyl)acrylic acid] | greater RAR agonist activity | consistently lower RXR-mediated transcriptional activity | significantly lower | greater than the ethanol vehicle control |  | greater than the ethanol vehicle control | inhibited VDR activity less |  |  |  |  |  | significantly lower |  |
| Cc1cc2c(cc1C1(c3ccc(C(=O)O)cn3)CC1)C(C)(C)CCC2(C)C [Compound 9, 6-[1-(3,5,5,8,8-Pentamethyl-5,6,7,8-tetrahydronaphthalen-2-yl)cyclopropyl]nicotinic Acid, reference compound] |  |  | significantly lower | greater than the ethanol vehicle control |  | greater than the ethanol vehicle control |  |  |  |  | significantly lower |  |  |  |
| C=C(c1ccc(C(=O)O)cc1)c1cc2c(cc1C)C(C)(C)C=CC2(C)C [Compound 10, 4-[1-(3,5,5,8,8-Pentamethyl-2–5,8-dihydronaphthyl)vinyl]benzoic Acid, reference compound] | greater RAR agonist activity |  |  | greater than the ethanol vehicle control |  |  | inhibited VDR activity less |  |  |  |  |  |  | transcriptional activity consistently above the compound 1 level |
| Cc1cc2c(cc1C1(c3ncc(C(=O)O)cn3)CC1)C(C)(C)CCC2(C)C [Compound 14] | greater RAR agonist activity |  | significantly lower | greater than the ethanol vehicle control |  | greater than the ethanol vehicle control | inhibited VDR activity less |  |  |  |  |  |  |  |
| Cc1cc2c(cc1-c1cc(/C=C/C(=O)O)ccc1O)C(C)(C)CCC2(C)C [Compound 11, (E)-3-(3-(1,2,3,4-tetrahydro-1,1,4,4,6-pentamethylnaphthalen-7-yl)-4-hydroxyphenyl)acrylic acid, reference compound] | slightly lower RAR-directed activity | consistently more active | significantly lower |  |  |  |  | greater activity than compound 1 |  | high activity compared with compound 1 | significantly lower |  |  |  |
| Cc1cc2c(cc1-c1cccc(/C=C/C(=O)O)c1)C(C)(C)CCC2(C)C [Compound 12, (E)-3-(3-(1,2,3,4-tetrahydro-1,1,4,4,6-pentamethylnaphthalen-7-yl)phenyl)acrylic acid, reference compound] | slightly lower RAR-directed activity | consistently lower RXR-mediated transcriptional activity | significantly lower | greater than the ethanol vehicle control | significant inhibiton |  |  |  | significant inhibiton |  |  |  | significantly lower |  |
